This passage reports zone of inhibition results from ChEMBL document CHEMBL1782021, “Synthesis of 2-aziridinyl phosphonates by modified Gabriel-Cromwell reaction and their antibacterial activities” (2011).

Common to all, as to assay type: functional
Experiment [1] has as its system Kocuria. Description: Antibacterial activity against Kocuria sp. isolate Fs24 at 10 ug/disk after 24 hrs by disc diffusion assay. The conditions noted are these: isolate Fs24, 24 h, read-out: DIZ. Background: Agar diffusion results depend on both activity and mobility in agar.
In experiment [2] the test system is Escherichia coli. Description: Antibacterial activity against Escherichia coli DH5[alpha] at 10 ug/disk after 24 hrs by disc diffusion assay. The settings on record: read-out: DIZ.
The subject of experiment [3] is Bacillus subtilis. As to the kind of experiment: Antibacterial activity against Bacillus subtilis assessed as diameter of zone of inhibition at 10 ug/disk after 24 hrs by disc diffusion assay. The settings on record: read-out: DIZ.
Experiment [4] relates to Brevundimonas. Description: Antibacterial activity against Brevundimonas sp. isolate Fs30 at 10 ug/disk after 24 hrs by disc diffusion assay. The settings on record: isolate Fs30, 24 h, read-out: DIZ.
Experiment [5] relates to Gordonia sp. Description: Antibacterial activity against Gordonia sp. isolate Fs48 at 10 ug/disk after 24 hrs by disc diffusion assay. The settings on record: Gordonia sp. (in: high G+C Gram-positive bacteria), isolate Fs48, 24 h; read-out: DIZ.

As for `CC1(C)S[C@@H]2[C@H](NC(=O)[C@H](N)c3ccccc3)C(=O)N2[C@H]1C(=O)O` [AMPICILLIN], the zone of inhibition at 10 µg/disc in experiment [1] came out at 47.7 mm; in experiment [2] it was 16.7 mm; in experiment [3], 17.3 mm; in experiment [4], 10.7 mm.
For the compound `CN[C@@H]1[C@H](O[C@H]2[C@H](O[C@H]3[C@H](O)[C@@H](O)[C@H](N=C(N)N)[C@@H](O)[C@@H]3N=C(N)N)O[C@@H](C)[C@]2(O)C=O)O[C@@H](CO)[C@H](O)[C@H]1O` [STREPTOMYCIN], the zone of inhibition at 10 µg/disc in experiment [1] is 26 mm; in experiment [2] it was 19.7 mm; in experiment [3] it was 14 mm; in experiment [5] it was 29 mm; in experiment [4], 29.3 mm.
